Measurements reported in ChEMBL document CHEMBL3991601, “The target landscape of clinical kinase drugs” (Science, 2017).
The source made the active and inactive calls.

Experiments:
[1] = target: Serine/threonine-protein kinase PAK 4 (Homo sapiens, UniProt O96013)
[2] = target: Casein kinase II subunit alpha' (Homo sapiens, UniProt P19784)
[3] = target: NADH dehydrogenase [ubiquinone] 1 alpha subcomplex subunit 13 (Homo sapiens, UniProt Q9P0J0)
[4] = target: T1, ATP-dependent 6-phosphofructokinase, platelet type (Homo sapiens, UniProt Q01813)
T1 sequence (Q01813 whole entry): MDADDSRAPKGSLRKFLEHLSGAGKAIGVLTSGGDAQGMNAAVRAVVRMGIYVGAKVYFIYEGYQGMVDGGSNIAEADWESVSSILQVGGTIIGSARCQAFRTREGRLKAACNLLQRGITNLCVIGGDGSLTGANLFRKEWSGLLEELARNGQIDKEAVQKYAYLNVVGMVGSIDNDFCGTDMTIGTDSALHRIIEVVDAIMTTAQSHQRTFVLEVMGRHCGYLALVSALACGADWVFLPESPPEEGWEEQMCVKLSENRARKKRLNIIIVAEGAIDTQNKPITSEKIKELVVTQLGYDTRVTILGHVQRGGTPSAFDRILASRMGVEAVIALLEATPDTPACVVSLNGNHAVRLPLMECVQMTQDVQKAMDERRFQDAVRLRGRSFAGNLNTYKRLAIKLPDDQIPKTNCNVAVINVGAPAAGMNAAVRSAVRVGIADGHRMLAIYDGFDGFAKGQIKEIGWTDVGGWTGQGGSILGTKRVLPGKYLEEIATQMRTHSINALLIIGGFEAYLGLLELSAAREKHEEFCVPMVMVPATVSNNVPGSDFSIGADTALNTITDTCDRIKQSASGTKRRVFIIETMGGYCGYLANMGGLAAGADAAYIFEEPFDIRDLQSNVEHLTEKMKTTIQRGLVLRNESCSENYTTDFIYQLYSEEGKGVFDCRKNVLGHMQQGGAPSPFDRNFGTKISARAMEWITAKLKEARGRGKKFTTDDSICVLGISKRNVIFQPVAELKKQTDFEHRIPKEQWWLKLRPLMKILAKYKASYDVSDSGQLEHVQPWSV

[5] = target: T2, Serine/threonine-protein kinase PLK4 (Homo sapiens, UniProt O00444)
T2 sequence (O00444 whole entry): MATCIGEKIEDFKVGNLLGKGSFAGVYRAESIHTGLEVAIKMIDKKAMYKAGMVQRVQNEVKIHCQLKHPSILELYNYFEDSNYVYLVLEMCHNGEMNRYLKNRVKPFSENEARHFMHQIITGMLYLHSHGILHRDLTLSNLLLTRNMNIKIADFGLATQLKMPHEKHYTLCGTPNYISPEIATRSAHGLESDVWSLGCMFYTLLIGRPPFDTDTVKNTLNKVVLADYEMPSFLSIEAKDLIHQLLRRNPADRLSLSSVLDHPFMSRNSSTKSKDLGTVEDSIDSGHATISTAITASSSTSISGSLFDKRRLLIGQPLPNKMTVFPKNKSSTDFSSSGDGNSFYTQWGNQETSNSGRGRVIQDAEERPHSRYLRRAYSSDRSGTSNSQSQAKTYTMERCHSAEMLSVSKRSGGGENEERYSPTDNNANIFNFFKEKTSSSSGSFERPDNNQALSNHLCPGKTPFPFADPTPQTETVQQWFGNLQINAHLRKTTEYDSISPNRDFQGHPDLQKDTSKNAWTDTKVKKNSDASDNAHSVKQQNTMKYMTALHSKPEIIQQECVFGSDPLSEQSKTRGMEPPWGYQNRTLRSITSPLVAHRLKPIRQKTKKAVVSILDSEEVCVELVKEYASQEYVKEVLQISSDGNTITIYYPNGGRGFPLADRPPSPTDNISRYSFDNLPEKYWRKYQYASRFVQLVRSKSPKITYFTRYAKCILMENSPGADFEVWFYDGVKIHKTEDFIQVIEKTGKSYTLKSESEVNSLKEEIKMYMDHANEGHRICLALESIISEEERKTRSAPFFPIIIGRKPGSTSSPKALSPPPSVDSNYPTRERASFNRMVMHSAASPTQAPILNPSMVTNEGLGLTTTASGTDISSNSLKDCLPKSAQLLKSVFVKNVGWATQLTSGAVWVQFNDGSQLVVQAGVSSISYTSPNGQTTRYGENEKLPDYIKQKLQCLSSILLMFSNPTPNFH

[6] = target: Atypical kinase COQ8A, mitochondrial (Homo sapiens, UniProt Q8NI60)
[7] = target: T3, Delta(24)-sterol reductase (Homo sapiens, UniProt Q15392)
T3 sequence (Q15392 whole entry): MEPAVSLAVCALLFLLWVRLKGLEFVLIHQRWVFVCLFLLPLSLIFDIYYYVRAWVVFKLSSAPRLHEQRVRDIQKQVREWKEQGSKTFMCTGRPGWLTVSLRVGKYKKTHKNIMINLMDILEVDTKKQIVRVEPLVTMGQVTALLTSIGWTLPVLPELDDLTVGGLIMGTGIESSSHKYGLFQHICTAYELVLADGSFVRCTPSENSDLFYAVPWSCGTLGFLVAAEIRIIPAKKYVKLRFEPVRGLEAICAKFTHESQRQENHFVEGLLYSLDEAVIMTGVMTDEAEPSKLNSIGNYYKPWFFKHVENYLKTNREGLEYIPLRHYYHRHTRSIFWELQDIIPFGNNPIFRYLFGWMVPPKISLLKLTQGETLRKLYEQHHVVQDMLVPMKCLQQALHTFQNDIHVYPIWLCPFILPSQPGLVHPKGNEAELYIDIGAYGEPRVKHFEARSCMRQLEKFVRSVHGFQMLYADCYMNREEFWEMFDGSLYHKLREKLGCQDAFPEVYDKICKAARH

[8] = target: Serine/threonine-protein kinase MRCK alpha (Homo sapiens, UniProt Q5VT25)
[9] = target: U5 small nuclear ribonucleoprotein 200 kDa helicase (Homo sapiens, UniProt O75643)
DNA topoisomerase 2-beta = DNA topoisomerase 2-beta (Homo sapiens, UniProt Q02880)
[10] = target: cAMP-dependent protein kinase catalytic subunit beta (Homo sapiens, UniProt P22694)
[11] = target: Maternal embryonic leucine zipper kinase (Homo sapiens, UniProt Q14680)
[12] = target: Platelet-derived growth factor receptor beta (Homo sapiens, UniProt P09619)

Measured: Kd
Further: in the data inactive means no Kd found up to 30 µM.

Sequence of Maternal embryonic leucine zipper kinase (Q14680 whole entry): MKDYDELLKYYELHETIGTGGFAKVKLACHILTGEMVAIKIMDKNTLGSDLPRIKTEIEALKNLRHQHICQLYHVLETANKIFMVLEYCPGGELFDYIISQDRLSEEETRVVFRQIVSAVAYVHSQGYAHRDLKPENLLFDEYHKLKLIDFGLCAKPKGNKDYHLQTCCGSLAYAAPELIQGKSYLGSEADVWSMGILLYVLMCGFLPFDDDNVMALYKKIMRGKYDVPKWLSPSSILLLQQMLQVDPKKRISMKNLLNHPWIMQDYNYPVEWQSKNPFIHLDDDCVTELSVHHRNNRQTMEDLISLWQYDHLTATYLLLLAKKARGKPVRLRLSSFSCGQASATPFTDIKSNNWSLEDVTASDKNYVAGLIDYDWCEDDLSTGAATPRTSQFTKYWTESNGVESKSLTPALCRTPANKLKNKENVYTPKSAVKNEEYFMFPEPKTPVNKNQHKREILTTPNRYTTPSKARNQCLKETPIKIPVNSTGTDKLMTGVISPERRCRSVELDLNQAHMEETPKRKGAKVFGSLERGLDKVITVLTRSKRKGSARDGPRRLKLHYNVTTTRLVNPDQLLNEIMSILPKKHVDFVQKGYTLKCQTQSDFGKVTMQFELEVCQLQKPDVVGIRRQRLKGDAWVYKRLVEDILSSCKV
Sequence of Serine/threonine-protein kinase PAK 4 (O96013 whole entry): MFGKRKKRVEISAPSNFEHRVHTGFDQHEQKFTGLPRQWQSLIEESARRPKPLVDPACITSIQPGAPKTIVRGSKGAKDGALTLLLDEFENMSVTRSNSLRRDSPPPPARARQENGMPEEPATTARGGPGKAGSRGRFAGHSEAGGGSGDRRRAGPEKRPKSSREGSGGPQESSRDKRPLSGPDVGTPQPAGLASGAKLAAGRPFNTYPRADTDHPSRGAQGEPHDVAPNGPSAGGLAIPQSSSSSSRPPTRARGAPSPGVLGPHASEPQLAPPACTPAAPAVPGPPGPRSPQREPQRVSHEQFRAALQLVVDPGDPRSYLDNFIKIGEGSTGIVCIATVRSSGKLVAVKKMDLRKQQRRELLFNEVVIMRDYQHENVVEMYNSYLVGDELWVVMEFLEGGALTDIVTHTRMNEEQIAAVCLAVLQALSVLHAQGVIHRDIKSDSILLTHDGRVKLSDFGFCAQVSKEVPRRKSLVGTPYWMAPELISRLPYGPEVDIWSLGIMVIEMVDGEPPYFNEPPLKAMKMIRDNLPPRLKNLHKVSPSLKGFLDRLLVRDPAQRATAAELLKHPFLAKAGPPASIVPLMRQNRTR
Sequence of Casein kinase II subunit alpha' (P19784 whole entry): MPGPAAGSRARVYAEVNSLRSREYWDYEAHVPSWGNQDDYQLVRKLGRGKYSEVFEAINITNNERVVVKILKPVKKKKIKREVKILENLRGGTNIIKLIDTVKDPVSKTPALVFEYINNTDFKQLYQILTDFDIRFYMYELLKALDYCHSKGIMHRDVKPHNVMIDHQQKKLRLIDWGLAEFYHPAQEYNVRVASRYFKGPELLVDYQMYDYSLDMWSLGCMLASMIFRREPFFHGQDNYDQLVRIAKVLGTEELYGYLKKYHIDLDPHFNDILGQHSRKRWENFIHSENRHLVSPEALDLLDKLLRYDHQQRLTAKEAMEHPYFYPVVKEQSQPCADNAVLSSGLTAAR
Sequence of DNA topoisomerase 2-beta (Q02880 whole entry): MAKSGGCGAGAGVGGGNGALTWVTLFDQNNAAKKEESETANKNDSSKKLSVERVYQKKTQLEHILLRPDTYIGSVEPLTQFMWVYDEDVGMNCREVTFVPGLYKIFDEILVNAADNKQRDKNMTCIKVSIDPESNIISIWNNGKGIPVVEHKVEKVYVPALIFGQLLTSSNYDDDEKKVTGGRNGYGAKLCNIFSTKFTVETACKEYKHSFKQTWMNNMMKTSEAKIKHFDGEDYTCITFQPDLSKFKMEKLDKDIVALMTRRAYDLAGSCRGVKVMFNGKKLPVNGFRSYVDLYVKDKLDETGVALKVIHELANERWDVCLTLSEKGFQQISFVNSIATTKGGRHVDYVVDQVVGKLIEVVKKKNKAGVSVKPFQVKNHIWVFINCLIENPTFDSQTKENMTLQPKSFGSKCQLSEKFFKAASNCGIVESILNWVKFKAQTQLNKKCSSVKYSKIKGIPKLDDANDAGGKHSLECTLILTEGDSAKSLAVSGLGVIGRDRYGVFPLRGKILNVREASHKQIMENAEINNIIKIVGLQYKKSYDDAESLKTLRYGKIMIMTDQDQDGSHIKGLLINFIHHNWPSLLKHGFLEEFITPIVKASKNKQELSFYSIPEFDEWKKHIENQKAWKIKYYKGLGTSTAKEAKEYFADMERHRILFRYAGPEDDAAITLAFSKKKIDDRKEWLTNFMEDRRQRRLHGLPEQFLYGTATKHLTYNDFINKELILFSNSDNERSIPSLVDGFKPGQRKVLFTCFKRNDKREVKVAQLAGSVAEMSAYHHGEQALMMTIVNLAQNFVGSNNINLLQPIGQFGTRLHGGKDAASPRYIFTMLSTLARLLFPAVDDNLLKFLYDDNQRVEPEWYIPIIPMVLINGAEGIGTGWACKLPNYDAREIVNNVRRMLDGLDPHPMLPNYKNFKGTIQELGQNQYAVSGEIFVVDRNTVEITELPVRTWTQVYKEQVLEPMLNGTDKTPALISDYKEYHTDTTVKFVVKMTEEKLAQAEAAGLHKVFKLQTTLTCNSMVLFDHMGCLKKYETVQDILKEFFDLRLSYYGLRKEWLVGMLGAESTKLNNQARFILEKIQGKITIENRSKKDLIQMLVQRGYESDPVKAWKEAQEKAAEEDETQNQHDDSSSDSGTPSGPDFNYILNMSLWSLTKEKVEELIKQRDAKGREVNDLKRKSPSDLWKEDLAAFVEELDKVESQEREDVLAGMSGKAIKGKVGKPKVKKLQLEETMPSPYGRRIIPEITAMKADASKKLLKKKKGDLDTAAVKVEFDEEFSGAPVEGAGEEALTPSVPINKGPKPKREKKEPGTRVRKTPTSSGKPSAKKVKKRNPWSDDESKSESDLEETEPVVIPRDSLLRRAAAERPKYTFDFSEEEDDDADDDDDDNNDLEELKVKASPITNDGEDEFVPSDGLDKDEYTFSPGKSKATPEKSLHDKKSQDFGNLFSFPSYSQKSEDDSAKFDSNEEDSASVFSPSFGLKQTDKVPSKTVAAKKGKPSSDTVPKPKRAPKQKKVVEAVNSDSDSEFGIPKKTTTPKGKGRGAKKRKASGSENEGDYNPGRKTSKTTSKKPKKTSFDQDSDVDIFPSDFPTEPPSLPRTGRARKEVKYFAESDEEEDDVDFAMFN
Sequence of Atypical kinase COQ8A, mitochondrial (Q8NI60 whole entry): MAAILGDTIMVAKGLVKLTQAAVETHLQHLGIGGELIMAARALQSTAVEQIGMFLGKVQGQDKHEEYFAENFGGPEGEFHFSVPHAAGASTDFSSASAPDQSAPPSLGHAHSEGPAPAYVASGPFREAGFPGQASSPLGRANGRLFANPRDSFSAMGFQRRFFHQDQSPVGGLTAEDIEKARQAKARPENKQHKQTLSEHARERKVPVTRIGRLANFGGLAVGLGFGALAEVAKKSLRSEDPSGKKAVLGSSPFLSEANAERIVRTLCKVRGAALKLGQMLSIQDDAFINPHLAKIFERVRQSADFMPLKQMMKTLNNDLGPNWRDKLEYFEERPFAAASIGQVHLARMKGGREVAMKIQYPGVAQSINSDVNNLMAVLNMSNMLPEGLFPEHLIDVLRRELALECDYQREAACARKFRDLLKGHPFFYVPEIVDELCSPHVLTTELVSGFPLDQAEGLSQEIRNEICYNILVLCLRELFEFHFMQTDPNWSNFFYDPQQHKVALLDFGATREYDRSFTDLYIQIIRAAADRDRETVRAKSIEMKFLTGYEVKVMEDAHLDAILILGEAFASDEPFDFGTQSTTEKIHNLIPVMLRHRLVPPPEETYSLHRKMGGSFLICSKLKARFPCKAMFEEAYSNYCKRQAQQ
Sequence of Platelet-derived growth factor receptor beta (P09619 whole entry): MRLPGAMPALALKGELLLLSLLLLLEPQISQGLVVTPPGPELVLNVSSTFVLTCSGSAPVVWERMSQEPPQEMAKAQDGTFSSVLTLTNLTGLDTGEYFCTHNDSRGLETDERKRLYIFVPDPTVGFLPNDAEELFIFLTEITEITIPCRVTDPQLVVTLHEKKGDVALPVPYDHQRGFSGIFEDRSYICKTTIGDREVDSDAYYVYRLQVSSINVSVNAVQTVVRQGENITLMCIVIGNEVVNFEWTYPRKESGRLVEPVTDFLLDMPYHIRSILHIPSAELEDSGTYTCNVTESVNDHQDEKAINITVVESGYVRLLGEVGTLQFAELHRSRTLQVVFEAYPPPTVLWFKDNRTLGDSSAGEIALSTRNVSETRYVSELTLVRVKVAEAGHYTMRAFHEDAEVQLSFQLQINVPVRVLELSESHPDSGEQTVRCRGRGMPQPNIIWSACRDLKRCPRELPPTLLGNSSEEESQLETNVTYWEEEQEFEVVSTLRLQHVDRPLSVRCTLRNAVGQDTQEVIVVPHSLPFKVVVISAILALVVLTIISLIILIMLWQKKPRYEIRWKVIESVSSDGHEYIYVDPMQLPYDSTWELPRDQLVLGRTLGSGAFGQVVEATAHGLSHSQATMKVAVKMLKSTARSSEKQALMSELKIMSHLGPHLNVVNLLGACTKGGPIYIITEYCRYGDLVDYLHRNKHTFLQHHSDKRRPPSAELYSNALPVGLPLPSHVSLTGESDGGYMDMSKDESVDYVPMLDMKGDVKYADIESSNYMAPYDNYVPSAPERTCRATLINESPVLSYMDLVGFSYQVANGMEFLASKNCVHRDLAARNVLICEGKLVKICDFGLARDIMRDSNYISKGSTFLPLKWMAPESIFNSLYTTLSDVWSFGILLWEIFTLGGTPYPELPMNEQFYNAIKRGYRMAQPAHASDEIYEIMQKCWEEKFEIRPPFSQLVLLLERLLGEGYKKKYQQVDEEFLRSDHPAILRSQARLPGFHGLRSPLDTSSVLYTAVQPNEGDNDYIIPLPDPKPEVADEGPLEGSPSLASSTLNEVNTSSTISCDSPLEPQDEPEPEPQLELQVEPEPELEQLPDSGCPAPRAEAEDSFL

C=CC(=O)N1CCC[C@H](n2c(=O)n(-c3ccc(Oc4ccccc4)cc3)c3c(N)ncnc32)C1
inactive: [1] > 30 µM | [2] > 30 µM | [3] > 30 µM | [4] > 30 µM | [5] > 30 µM | [6] > 30 µM | [7] > 30 µM | [8] > 30 µM | [9] > 30 µM | DNA topoisomerase 2-beta > 30 µM | [10] > 30 µM | [11] > 30 µM | [12] > 30 µM

COCc1c(-c2ccc(NC(=O)Nc3cc(C(F)(F)F)ccc3F)c(F)c2)c2c(N)ncnn2c1CN1CCOCC1
inactive: [1] > 30 µM | [2] > 30 µM | [3] > 30 µM | [4] > 30 µM | [5] > 30 µM | [6] > 30 µM | [7] > 30 µM | [8] > 30 µM | [9] > 30 µM | DNA topoisomerase 2-beta > 30 µM | [10] > 30 µM | [11] > 30 µM | [12] > 30 µM

Nc1ncnc2c1c(-c1cccc(OCc3ccccc3)c1)cn2[C@H]1C[C@@H](CN2CCC2)C1 [AEW-541]
active: [6] 0.835 µM
inactive: [1] > 30 µM | [2] > 30 µM | [3] > 30 µM | [4] > 30 µM | [5] > 30 µM | [7] > 30 µM | [8] > 30 µM | [9] > 30 µM | DNA topoisomerase 2-beta > 30 µM | [10] > 30 µM | [11] > 30 µM | [12] > 30 µM

Cc1csc(-c2nnc(Nc3ccc(Oc4ncccc4-c4ccnc(N)n4)cc3)c3ccccc23)c1 [AMG-900]
2.6 µM: DNA topoisomerase 2-beta
inactive: [1] > 30 µM | [2] > 30 µM | [4] > 30 µM | [5] > 30 µM | [6] > 30 µM | [7] > 30 µM | [8] > 30 µM | [9] > 30 µM | [10] > 30 µM | [11] > 30 µM | [12] > 30 µM

C=CC(=O)Nc1cc2c(Nc3ccc(F)c(Cl)c3)ncnc2cc1C#CC(C)(C)N1CCN(C)CC1 [AV-412 FREE BASE]
inactive: [1] > 30 µM | [2] > 30 µM | [3] > 30 µM | [4] > 30 µM | [5] > 30 µM | [6] > 30 µM | [7] > 30 µM | [8] > 30 µM | [9] > 30 µM | DNA topoisomerase 2-beta > 30 µM | [10] > 30 µM | [11] > 30 µM | [12] > 30 µM

COc1cc([C@@H]2c3cc4c(cc3[C@H](O)[C@H]3COC(=O)[C@@H]23)OCO4)cc(OC)c1OC [AXL-1717]
inactive: [1] > 30 µM | [2] > 30 µM | [3] > 30 µM | [4] > 30 µM | [5] > 30 µM | [6] > 30 µM | [7] > 30 µM | [8] > 30 µM | [9] > 30 µM | DNA topoisomerase 2-beta > 30 µM | [10] > 30 µM | [11] > 30 µM | [12] > 30 µM

NC(=O)Nc1cc(-c2cccc(F)c2)sc1C(=O)N[C@H]1CCCNC1 [AZD-7762]
inactive: [3] > 30 µM | [4] > 30 µM | [6] > 30 µM | [7] > 30 µM | [8] > 30 µM | [9] > 30 µM | DNA topoisomerase 2-beta > 30 µM | [10] > 30 µM
active: [1] 0.166 µM | [2] 3.15 µM | [5] 0.722 µM | [11] 4.53 µM | [12] 0.552 µM

Cc1cc(C(=O)NOCCO)c(Nc2ccc(I)cc2F)n(C)c1=O [AZD-8330]
inactive: [1] > 30 µM | [2] > 30 µM | [3] > 30 µM | [4] > 30 µM | [5] > 30 µM | [6] > 30 µM | [7] > 30 µM | [8] > 30 µM | [9] > 30 µM | DNA topoisomerase 2-beta > 30 µM | [10] > 30 µM | [11] > 30 µM | [12] > 30 µM

Cn1cnc2c(F)c(Nc3ccc(Br)cc3F)c(C(=O)NOCCO)cc21 [BINIMETINIB]
inactive: [1] > 30 µM | [2] > 30 µM | [3] > 30 µM | [4] > 30 µM | [5] > 30 µM | [6] > 30 µM | [7] > 30 µM | [8] > 30 µM | [9] > 30 µM | DNA topoisomerase 2-beta > 30 µM | [10] > 30 µM | [11] > 30 µM | [12] > 30 µM

CO[C@H]1C[C@@H]2CC[C@@H](C)[C@@](O)(O2)C(=O)C(=O)N2CCCC[C@H]2C(=O)O[C@H]([C@H](C)C[C@@H]2CC[C@@H](O)[C@H](OC)C2)CC(=O)[C@H](C)/C=C(\C)[C@@H](O)[C@@H](OC)C(=O)[C@H](C)C[C@H](C)/C=C/C=C/C=C/1C [SIROLIMUS]
inactive: [1] > 30 µM | [2] > 30 µM | [4] > 30 µM | [5] > 30 µM | [6] > 30 µM | [7] > 30 µM | [8] > 30 µM | [9] > 30 µM | DNA topoisomerase 2-beta > 30 µM | [10] > 30 µM | [11] > 30 µM | [12] > 30 µM

Cn1ncc(Cl)c1-c1cc(C(=O)N[C@H](CN)Cc2ccc(F)c(F)c2)oc1Cl [UPROSERTIB]
0.24 µM: [11]
inactive: [1] > 30 µM | [2] > 30 µM | [4] > 30 µM | [5] > 30 µM | [6] > 30 µM | [7] > 30 µM | [8] > 30 µM | [9] > 30 µM | DNA topoisomerase 2-beta > 30 µM | [12] > 30 µM
active: [10] 0.049 µM
